The values below come from patent US10975083B2, “Blood-brain barrier-penetrant dopamine-β-hydroxylase inhibitors” (BIAL—PORTELA & Cᵃ, S.A., priority 2016, dated 2021).

Read-outs that look alike come from different tables or passages of the source.

The test deals with T1, DβH (Homo sapiens, UniProt P09172).
T1 construct: reaction mixture (total volume 500 μl) contained: cellular homogenate (75 μg total protein); host or cells: SK-N-SH cell homogenate
T1 sequence (P09172 1-617): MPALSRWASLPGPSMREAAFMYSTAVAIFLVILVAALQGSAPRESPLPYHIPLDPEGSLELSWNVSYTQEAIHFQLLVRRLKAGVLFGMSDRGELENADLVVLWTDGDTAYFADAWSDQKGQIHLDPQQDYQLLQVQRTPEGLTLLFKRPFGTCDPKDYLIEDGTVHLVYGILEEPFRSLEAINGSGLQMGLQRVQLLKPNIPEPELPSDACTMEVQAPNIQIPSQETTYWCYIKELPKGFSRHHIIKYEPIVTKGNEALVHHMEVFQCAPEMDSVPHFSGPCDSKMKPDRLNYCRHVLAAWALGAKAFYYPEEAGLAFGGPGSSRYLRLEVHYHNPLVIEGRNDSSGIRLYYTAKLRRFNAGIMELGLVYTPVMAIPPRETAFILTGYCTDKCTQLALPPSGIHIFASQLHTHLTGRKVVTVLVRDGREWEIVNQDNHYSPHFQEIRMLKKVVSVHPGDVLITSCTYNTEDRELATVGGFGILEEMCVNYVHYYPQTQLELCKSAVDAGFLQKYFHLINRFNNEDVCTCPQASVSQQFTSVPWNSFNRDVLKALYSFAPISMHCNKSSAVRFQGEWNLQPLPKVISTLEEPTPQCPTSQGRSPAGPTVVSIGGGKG
As to the kind of experiment: DβH inhibition cell assay (SK-N-SH cellular homogenates, tyramine to octopamine). The class given is biochemical. The settings on record: for remaining activity at 0.1 µM: inhibitor 0.1 μM, read-out: DβH activity in % of Ctrl (0.1 μM); for remaining activity at 1 µM: read-out: DβH activity in % of Ctrl (1 μM). Here is the method: The ability of a compound to inhibit DβH activity may be assessed using the following cell assay. […] . […] Fetal bovine serum was removed from cells for 4 h prior to collection.
For the preparation of cellular homogenates, media was removed and cell monolayers were washed with 50 mM Tris-HCl pH 7.4. Cells were subsequently scrapped off the flasks and were resuspended in 50 mM Tris pH 7.4. Cell suspensions were homogenized with SilentCrusher M (Heidolph) for a short stroke and resultant homogenates were aliquoted and stored frozen at −80° C.
Total protein was quantified in cellular homogenates with BioRad Protein Assay (BioRad) using a standard curve of BSA (50-250 μg/mL).
DβH activity was measured by a modification of the method of Nagatsu and Udenfriend (Nagatsu, T. and S. Udenfriend: “Photometric assay of dopamine-hydroxylase activity in human blood.” Clin. Chem. 18(9): 980-3, 1972) which is based on the enzymatic hydroxylation of tyramine into octopamine. The octopamine formed is subsequently oxidized to p-hydroxybenzaldehyde and measured by spectrophotometry. In brief, reaction mixture (total volume 500 μl) contained: cellular homogenate (75 μg total protein) sodium acetate pH 5.0 (200 mM), NEM (30 mM), CuSO4 (5 μM), catalase aqueous solution (0.5 mg/mL), pargyline-HCl (1 mM), sodium fumarate (10 mM), ascorbic acid (10 mM), inhibitor or vehicle and tyramine (25 mM). After a 10 min pre-incubation period at 37° C., the reaction was initiated by the addition of tyramine. Reaction was carried out for 45 min at 37° C. before termination with 50 μl PCA (2 M).
Samples were centrifuged for 3 min at 16100 g and supernatants were subjected to solid phase extraction. Solid phase extraction was performed using either SPE cartridges ISOLUTE SCX-3 (100 mg, 1 mL) or SPE 2 mL fixed 96 well plates ISOLUTE SCX-3 (100 mg) previously equilibrated with MilliQ water. Columns/plates were centrifuged at 150 g for 2 min. Eluate was discarded and matrix was washed with 1 mL of MilliQ water after which octopamine was eluted with 2×0.25 mL ammonium hydroxide (4 M). The oxidation of octopamine to p-hydroxybenzaldehyde was carried out for 6 min with 100 μl sodium periodate (2%) and was stopped with 100 μl sodium metabisulfite (10%). Absorbance was measured at 330 nm on a Spectramax microplate reader (Molecular Devices, Sunnyvale, Calif.). All enzymatic reactions were performed in duplicate. Results are reported in the table below as activity in % of control at the inhibitor concentration tested.

[1] abbreviates: inhibitor 1 μM, SK-N-SH cell homogenate.

In the case of `Fc1ccc(Cl)c(F)c1[C@]12C[C@H]1c1n[nH]c(=S)n1C2` [Example 88, (5aS,6aR)-5a-(3-chloro-2,6-difluorophenyl)-5,5a,6,6a-tetrahydrocyclopropa[3,4]pyrrolo[2,1-c][1,2,4]triazole-3(2H)-thione], the remaining activity at 0.1 µM (SK-N-SH cell homogenate) was 45.8%. Also, the remaining activity at 1 µM under setting [1] is 6.2%.

With `Fc1cccc(Cl)c1[C@]12C[C@H]1c1c[nH]c(=S)n1C2` [Example 89, (5aS,6aR)-5a-(2-chloro-6-fluorophenyl)-5,5a,6,6a-tetrahydrocyclopropa[3,4]pyrrolo[1,2-c]imidazole-3 (2H)-thione], under setting [1], the remaining activity at 1 µM is 29.8%.

On to `Fc1ccc(Cl)c(F)c1[C@]12C[C@H]1c1c[nH]c(=S)n1C2` [Example 90, (5aS,6aR)-5a-(3-chloro-2,6-difluorophenyl)-5,5a,6,6a-tetrahydrocyclopropa[3,4]pyrrolo[1,2-c]imidazole-3 (2H)-thione], for which the remaining activity at 0.1 µM (SK-N-SH cell homogenate) is 1.8%. The remaining activity at 1 µM under setting [1] was 1%.

Take `[2H]C1([2H])n2c(c[nH]c2=S)[C@@H]2C[C@@]21c1cc(Cl)ccc1F` [Example 91, (5aS,6aR)-5a-(5-chloro-2-fluorophenyl)-5,5a,6,6a-tetrahydrocyclopropa[3,4]pyrrolo[1,2-c]imidazole-3(2H)-thione-5,5-d2]: the remaining activity at 0.1 µM (SK-N-SH cell homogenate) was found to be 22%. Moreover, the remaining activity at 1 µM under setting [1] amounted to 0%.

For `Fc1c(Cl)cccc1[C@]12C[C@H]1c1c[nH]c(=S)n1C2` [Example 92, (5aS,6aR)-5a-(3-chloro-2-fluorophenyl)-5,5a,6,6a-tetrahydrocyclopropa[3,4]pyrrolo[1,2-c]imidazole-3 (2H)-thione], where the note is “SK-N-SH cell homogenate”, the remaining activity at 0.1 µM is 2%. The remaining activity at 1 µM under setting [1] was 0%.

On to `Fc1ccc(Br)cc1[C@]12C[C@H]1c1c[nH]c(=S)n1C2` [Example 93, (5aS,6aR)-5a-(5-bromo-2-fluorophenyl)-5,5a,6,6a-tetrahydrocyclopropa[3,4]pyrrolo[1,2-c]imidazole-3 (2H)-thione], for which the remaining activity at 0.1 µM (SK-N-SH cell homogenate) was determined as 0%. Also, the remaining activity at 1 µM under setting [1] came out at 0%.

Consider `Fc1cc(Br)cc([C@]23C[C@H]2c2c[nH]c(=S)n2C3)c1` [Example 94, (5aS,6aR)-5a-(3-bromo-5-fluorophenyl)-5,5a,6,6a-tetrahydrocyclopropa[3,4]pyrrolo[1,2-c]imidazole-3 (2H)-thione], for which the remaining activity at 0.1 µM (SK-N-SH cell homogenate) was found to be 18.1%. The remaining activity at 1 µM under setting [1] turned out to be 0%.

Consider `Cc1[nH]c(=S)n2c1C[C@@H](c1cc(F)cc(F)c1)C2` [Example 95, (S)-6-(3,5-difluorophenyl)-1-methyl-2,5,6,7-tetrahydro-3H-pyrrolo[1,2-c]imidazole-3-thione], for which the remaining activity at 1 µM worked out at 28.9%.

Take `Cc1[nH]c(=S)n2c1C[C@H](c1c(F)c(F)cc(F)c1F)C2` [Example 96, (R)-1-methyl-6-(2,3,5,6-tetrafluorophenyl)-2,5,6,7-tetrahydro-3H-pyrrolo[1,2-c]imidazole-3-thione]: under “SK-N-SH cell homogenate”, the remaining activity at 0.1 µM worked out at 32%. Further, the remaining activity at 1 µM under setting [1] was 15%.

Turning to `Cc1[nH]c(=S)n2c1C[C@@H](c1c(F)c(F)cc(F)c1F)C2` [Example 97, (S)-1-methyl-6-(2,3,5,6-tetrafluorophenyl)-2,5,6,7-tetrahydro-3H-pyrrolo[1,2-c]imidazole-3-thione], the remaining activity at 0.1 µM (SK-N-SH cell homogenate) was found to be 41.9%. The remaining activity at 1 µM under setting [1] was found to be 7.9%.

With `Cc1[nH]c(=S)n2c1C[C@@H](c1c(F)cccc1F)C2` [Example 98, (S)-6-(2,6-difluorophenyl)-1-methyl-2,5,6,7-tetrahydro-3H-pyrrolo[1,2-c]imidazole-3-thione], the remaining activity at 1 µM under setting [1] was found to be 39.9%.

In the case of `Cc1[nH]c(=S)n2c1[C@@H]1C[C@]1(c1cc(Cl)ccc1F)C2` [Example 99, (5aS,6aR)-5a-(5-chloro-2-fluorophenyl)-1-methyl-5,5a,6,6a-tetrahydrocyclopropa[3,4]pyrrolo[1,2-c]imidazole-3 (2H)-thione], the remaining activity at 0.1 µM (SK-N-SH cell homogenate) is 31.6%. Moreover, the remaining activity at 1 µM under setting [1] was determined as 1%.

For the compound `[2H]C([2H])([2H])c1[nH]c(=S)n2c1[C@@H]1C[C@]1(c1cc(Cl)ccc1F)C2` [Example 100, (5aS,6aR)-5a-(5-chloro-2-fluorophenyl)-1-(methyl-d3)-5,5a,6,6a-tetrahydrocyclopropa[3,4]pyrrolo[1,2-c]imidazole-3 (2H)-thione], the remaining activity at 0.1 µM (SK-N-SH cell homogenate) was found to be 0%. In addition, the remaining activity at 1 µM under setting [1] was 0%.

Take `[2H]C([2H])([2H])n1cc2n(c1=S)C[C@@]1(c3cc(Cl)ccc3F)C[C@@H]21` [Example 101, (5aS,6aR)-5a-(5-chloro-2-fluorophenyl)-2-(methyl-d3)-5,5a,6,6a-tetrahydrocyclopropa[3,4]pyrrolo[1,2-c]imidazole-3 (2H)-thione]: the remaining activity at 0.1 µM (SK-N-SH cell homogenate) came to 14.5%. Besides, the remaining activity at 1 µM under setting [1] came to 0%.

In the case of `[2H]C1([2H])C2([2H])c3c[nH]c(=S)n3CC12c1cc(Cl)ccc1F` (stereo not drawn) [Example 102, 5a-(5-chloro-2-fluorophenyl)-5,5a,6,6a-tetrahydrocyclopropa[3,4]pyrrolo[1,2-c]imidazole-3(2H)-thione-6,6,6a-d3], the remaining activity at 0.1 µM (SK-N-SH cell homogenate) turned out to be 32%. The remaining activity at 1 µM under setting [1] came to 0%.

As to `Fc1ccc(Cl)c(F)c1[C@@]12C[C@@H]1c1c[nH]c(=S)n1C2` [Example 103, (5aR,6aS)-5a-(3-chloro-2,6-difluorophenyl)-5,5a,6,6a-tetrahydrocyclopropa[3,4]pyrrolo[1,2-c]imidazole-3 (2H)-thione], the remaining activity at 0.1 µM (SK-N-SH cell homogenate) came to 63.4%. The remaining activity at 1 µM under setting [1] came out at 10.3%.

In the case of `Cc1[nH]c(=S)n2c1C[C@H](c1c(F)ccc(Cl)c1F)C2` [Example 104, (R)-6-(3-chloro-2,6-difluorophenyl)-1-methyl-2,5,6,7-tetrahydro-3H-pyrrolo[1,2-c]imidazole-3-thione], the remaining activity at 0.1 µM (SK-N-SH cell homogenate) was 47.5%. The remaining activity at 1 µM under setting [1] was 6%.

Turning to `Cc1[nH]c(=S)n2c1C[C@@H](c1c(F)ccc(Cl)c1F)C2` [Example 105, (S)-6-(3-chloro-2,6-difluorophenyl)-1-methyl-2,5,6,7-tetrahydro-3H-pyrrolo[1,2-c]imidazole-3-thione], the remaining activity at 0.1 µM (SK-N-SH cell homogenate) came to 17.4%. For the same compound, the remaining activity at 1 µM under setting [1] came out at 0%.

On to `Fc1cc(F)cc([C@]23C[C@H]2Cc2c[nH]c(=S)n2C3)c1` [Example 106, (5aS,6aS)-5a-(3,5-difluorophenyl)-2,5,5a,6,6a,7-hexahydro-3H-cyclopropa[d]imidazo[1,5-a]pyridine-3-thione], for which the remaining activity at 1 µM stood at 16.3%.

Regarding `C[C@@H]1c2c[nH]c(=S)n2C[C@H]1c1c(F)c(F)cc(F)c1F` [Example 107, (6R,7S)-7-methyl-6-(2,3,5,6-tetrafluorophenyl)-2,5,6,7-tetrahydro-3H-pyrrolo[1,2-c]imidazole-3-thione], the remaining activity at 1 µM under setting [1] stood at 54.7%.

As for `C[C@H]1c2c[nH]c(=S)n2C[C@H]1c1c(F)c(F)cc(F)c1F` [Example 108, (6R,7R)-7-methyl-6-(2,3,5,6-tetrafluorophenyl)-2,5,6,7-tetrahydro-3H-pyrrolo[1,2-c]imidazole-3-thione], under setting [1], the remaining activity at 1 µM is 38.8%.
